Data on 14 compounds can be found in patent US4603130A, “1-substituted-2-(piperazinyl or homopiperazinyl)-benzimidazole compounds and pharmaceutical composition” (Kanebo, Ltd., priority 1983, dated 1986).

Structures can show the parent of a compound that is named as a salt.

For data set [1] the following is noted: among compounds of U.S. Pat. No. 3,423,413; cited from earlier work.
The nature of data set [2]: in vivo. As to conditions: mouse, in vivo, po; mice, p.o., deaths within one week; Weil's method; Example 9 as free base, others as fumarate; read-out: Acute Toxicity LD50. The text has this:
(§1) 2. Acute toxicity (LD50):
(§2) The same compounds as used in the above protecting activity against histamine were used.

Data set [3] has as its system histamine-induced lethality. Nature of the data set: Protecting activity against histamine-induced lethality (similar to Labelle-Tislow method), oral. Type of data set: in vivo, Hartley strain male and female guinea pigs. The note with it: Cavia porcellus, 2 h, guinea pig, p.o. 1 h before histamine 1.1 mg/kg i.v., survival after two hours, Probit method, Example 9 as free base, others as fumarate. The method, then:
1. Protecting activity against histamine-induced lethality:
(3) Homochlorcyclizine hydrochloride (reference compound)
The test was carried out by a method similar to Labelle-Tislow method [cf. J. Pharmacol. Exp. Ther., 113, 72, 1955]. […] After one hour, histamine (1.1 mg/kg, in a physiological saline solution) was injected to the animals in cephalic vein. After two hours, the number of live guinea pigs was counted, and therefrom ED50 of the compounds was calculated according to Probit method.

The test system of data set [4] is hexobarbital-induced sleep. The experiment in a line: Potentiating effect on hexobarbital-induced sleep in mice. The format is in vivo. The note with it: 25 mg/kg (p.o.). The text has this: Besides, the conventional antihistaminics have side-effect such as hypnotic activity.
Data set [5] deals with mice. The experiment in a line: in vivo. The note with it: p.o., deaths within one week, Weil's method, Example 9 as free base, others as fumarate, 10080 min.
Excerpt: as §1, §2

As to `OCCN1CCN(Cc2nc3ccccc3n2Cc2ccc(F)cc2)CC1` [Compound A, 1-(4-fluorobenzyl)-2-[4-(2-hydroxyethyl)-1-piperazinyl]methylbenzimidazole, reference compound], the anti-allergic activity result in data set [1] is on record as “most potent anti-allergic activity”. In data set [2], the 50% lethal dose (LD50) (usually the dose expected to kill half of the subjects tested) at 168 h was 440 mg/kg. The ED50 – broadly, the dose that gives a 50% effect, or the effect in half of the subjects – in data set [3] turned out to be 0.026 mg/kg.

Turning to `CCOCCn1c(CN2CCNCC2)nc2ccccc21` [Example 1, 1-(2-ethoxyethyl)-2-(1-piperazinyl)methylbenzimidazole], the LD50 at 168 h in data set [2] is more than 2000 mg/kg. In data set [3], this compound displayed an ED50 of 0.0033 mg/kg.

Regarding `CCOCCn1c(CN2CCCNCC2)nc2ccccc21` [Example 2, 1-(2-ethoxyethyl)-2-(1-homopiperazinyl)methylbenzimidazole], the LD50 at 168 h in data set [2] worked out at 1540 mg/kg. Also, the median effective dose (ED50) in data set [3] came out at 0.014 mg/kg.

In the case of `CCOCCn1c(CN2CCN(C)CC2)nc2ccccc21` [Example 3, 1-(2-ethoxyethyl)-2-(4-methyl-1-piperazinyl)methylbenzimidazole], the median lethal dose (LD50) at 168 h in data set [2] came to 789 mg/kg. In data set [3], the ED50 amounted to 0.0026 mg/kg.

Take `CCOCCn1c(CN2CCCN(C)CC2)nc2ccccc21` [Example 4, 1-(2-ethoxyethyl)-2-(4-methyl-1-homopiperazinyl)methylbenzimidazole]: the median lethal dose (LD50) at 168 h in data set [2] was 990 mg/kg. The same compound showed an ED50 in data set [3] of 0.0092 mg/kg.

As for `CCOCCn1c(CN2CCN(CC)CC2)nc2ccccc21` [Example 5, 1-(2-ethoxyethyl)-2-(4-ethyl-1-piperazinyl)methylbenzimidazole], in data set [2], the median lethal dose (LD50) at 168 h stood at 904 mg/kg. In data set [3], this compound registered an ED50 of 0.0067 mg/kg.

For the compound `CCCN1CCN(Cc2nc3ccccc3n2CCOCC)CC1` [Example 6, 1-(2-ethoxyethyl)-2-(4-n-propyl-1-piperazinyl)methylbenzimidazole], the LD50 at 168 h in data set [2] stood at 303 mg/kg. The compound further registered an ED50 in data set [3] of 0.0095 mg/kg.

As for `CCOCCn1c(CN2CCN(CCO)CC2)nc2ccccc21` [Example 7, 1-(2-ethoxyethyl)-2-[4-(2-hydroxyethyl)-1-piperazinyl]methylbenzimidazole], the LD50 at 168 h in data set [2] is more than 2000 mg/kg. The compound further registered a 50% effective dose (ED50) in data set [3] of 0.004 mg/kg.

`CCCOCCn1c(CN2CCN(C)CC2)nc2ccccc21` [Example 8, 1-(2-n-propoxyethyl)-2-(4-methyl-1-piperazinyl)methylbenzimidazole]: the LD50 at 168 h in data set [2] turned out to be 1010 mg/kg. This compound displayed an ED50 in data set [3] of 0.0059 mg/kg.

As for `C=COCCn1c(CN2CCN(C)CC2)nc2ccccc21` [Example 9, 1-(2-vinyloxyethyl)-2-(4-methyl-1-piperazinyl)methylbenzimidazole], the LD50 at 168 h in data set [2] worked out at 698 mg/kg. This compound displayed an ED50 in data set [3] of 0.0071 mg/kg.

Consider `C=CCOCCn1c(CN2CCN(C)CC2)nc2ccccc21` [Example 10, 1-(2-allyloxyethyl)-2-(4-methyl-1-piperazinyl)methylbenzimidazole], for which the 50% lethal dose (LD50) at 168 h in data set [2] was 657 mg/kg. For the same compound, the 50% effective dose (ED50) in data set [3] worked out at 0.0059 mg/kg.

Regarding `C#CCOCCn1c(CN2CCN(C)CC2)nc2ccccc21` [Example 11, 1-(2-propargyloxyethyl)-2-(4-methyl-1-piperazinyl)methylbenzimidazole], the 50% lethal dose (LD50) at 168 h in data set [2] turned out to be 891 mg/kg. The compound also gave a median effective dose (ED50) in data set [3] of 0.0023 mg/kg.

`C#CCOCCn1c(CN2CCCN(C)CC2)nc2ccccc21` [Example 12, 1-(2-propargyloxyethyl)-2-(4-methyl-1-homopiperazinyl)methylbenzimidazole]: the 50% lethal dose (LD50) at 168 h in data set [2] is 524 mg/kg. Further, the ED50 in data set [3] was 0.017 mg/kg.

`CN1CCCN(C(c2ccccc2)c2ccc(Cl)cc2)CC1` (stereo not drawn) [Homochlorcyclizine hydrochloride, reference compound]: in data set [4], the “potentiating effect on hexobarbital-induced sleep” value was “showed remarkable potentiating effect”. In addition, the “Acute Toxicity LD50” value in data set [5] is given as 382 mg/kg. Moreover, the ED50 in data set [3] was found to be 0.26 mg/kg.
